Reference: patent US10144715B2, “Piperazine derivatives as liver X receptor modulators” (priority 2014, dated 2018)
Read-outs that look alike come from different tables or passages of the source.

Experiments:
[1] = molecular target: LXR α LBD protein (Homo sapiens (Human), UniProt Q13133); assay: LXR α radioligand binding assay (SPA, competition with [3H]TO901317); conditions: read-out: LXRα Binding Ki
[2] = molecular target: Gal4 DNA binding domain fused to the LBD of LXRα in HEK293 cells (Homo sapiens (Human), UniProt Q13133); assay: LXR luciferase transcriptional reporter gene assay, agonist mode, LXRα; assay type: cell-based; conditions: for EC50: read-out: Cell LXRα EC50
Gal4 DNA binding domain fused to the LBD of LXRα in HEK293 cells, sequence (Q13133 209-447): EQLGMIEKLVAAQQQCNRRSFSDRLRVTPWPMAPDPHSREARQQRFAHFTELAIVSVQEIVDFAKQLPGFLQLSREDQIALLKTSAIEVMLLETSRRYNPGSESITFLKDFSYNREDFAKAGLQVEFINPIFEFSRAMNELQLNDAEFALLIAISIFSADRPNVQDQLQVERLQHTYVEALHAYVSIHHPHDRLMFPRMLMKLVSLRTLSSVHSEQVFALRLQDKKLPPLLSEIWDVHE

[3] = Biological Test Example 2, agonist mode

LXR α LBD protein, sequence (Q13133 209-447): as above

Compound	Ki [1]	Cell LXRα efficacy [2]	EC50 [2]	EC50 ([2]; agonist mode)	EC50 [2, 3]	Ki ([1]; Biological Test Example 1)
CC(C)[C@@H]1CN(c2ccc(F)c(S(C)(=O)=O)c2)CCN1c1ncc(C(F)(F)F)c(Cl)n1 [Cpd No 36-1, (R)-4-chloro-2-(4-(4-fluoro-3-(methylsulfonyl)phenyl)-2-isopropylpiperazin-1-yl)-5-(trifluoromethyl)pyrimidine]	30 nM	305 (100) %	305 nM	–	–	–
CC(C)[C@H]1CN(c2cccc(S(C)(=O)=O)c2)CCN1CC1CCC(C)(C)CC1 [48-2, (S)-1-((4,4-dimethylcyclohexyl)methyl)-2-isopropyl-4-(3-(methylsulfonyl)phenyl)piperazine]	81 nM	175 (81) %	175 nM	–	–	–
CCOC(=O)c1cnc(N2CCN(c3ccc(-c4nc(C)no4)c(S(C)(=O)=O)c3)C[C@H]2C(C)C)nc1C(F)(F)F [9-12, ethyl (R)-2-(2-isopropyl-4-(4-(3-methyl-1,2,4-oxadiazol-5-yl)-3-(methylsulfonyl)phenyl)piperazin-1-yl)-4-(trifluoromethyl)pyrimidine-5-carboxylate]	2290 nM	15144 (26) %	–	15100 nM	–	–
CC(C)[C@@H]1CN(c2ccc(CO)c(S(C)(=O)=O)c2)CCN1c1ccnc(C(N)=O)c1 [4-6, (R)-4-(4-(4-(hydroxymethyl)-3-(methylsulfonyl)phenyl)-2-isopropylpiperazin-1-yl)picolinamide]	> 3330 nM	9385 (44) %	–	9390 nM	–	–
CC(C)[C@@H]1CN(c2cccc(S(C)(=O)=O)c2)CCN1C[C@H]1CC[C@@H](C(F)(F)F)CC1 (single isomer, unassigned) [48-9]	490 nM	3201 (94) %	3200 nM	–	–	–
CS(=O)(=O)c1cccc(N2CCN(CC3CCC(C(F)(F)F)O3)[C@@H](c3ccc(F)cc3)C2)c1 (stereo partly drawn) [48-73, (2S)-2-(4-fluorophenyl)-4-(3-(methylsulfonyl)phenyl)-1-((5-(trifluoromethyl)tetrahydrofuran-2-yl)methyl)piperazine]	2250 nM	–	–	–	> 20000 nM	–
CC(C)[C@@H]1CN(c2ccc(CO)c(S(C)(=O)=O)c2)CCN1c1nc(C(F)(F)F)c(C(C)(C)O)s1 [Cpd No 27-1, (R)-2-(2-(4-(4-(hydroxymethyl)-3-(methylsulfonyl)phenyl)-2-isopropylpiperazin-1-yl)-4-(trifluoromethyl)thiazol-5-yl)propan-2-ol]	27 nM	225 (97) %	–	225 nM	–	–
CC(C)[C@@H]1CN(c2ccc(F)c(S(N)(=O)=O)c2)CCN1c1ccc(C(F)(F)F)cn1 [Cpd No 18-1, (R)-2-fluoro-5-(3-isopropyl-4-(5-(trifluoromethyl)pyridin-2-yl)piperazin-1-yl)benzenesulfonamide]	73 nM	591 (104) %	–	591 nM	–	–
COC(=O)c1ccc(N2CCN(c3ccc(F)c(S(C)(=O)=O)c3)C[C@H]2C(C)C)nc1C(F)(F)F [7-43, methyl (R)-6-(4-(4-fluoro-3-(methylsulfonyl)phenyl)-2-isopropylpiperazin-1-yl)-2-(trifluoromethyl)nicotinate]	130 nM	649 (77) %	–	649 nM	–	–
CC(C)[C@@H]1CN(c2ccc(F)c(S(C)(=O)=O)c2)CCN1c1nc(C(F)(F)F)cc(=O)[nH]1 [Cpd No 24-1, (R)-2-(4-(4-fluoro-3-(methylsulfonyl)phenyl)-2-isopropylpiperazin-1-yl)-6-(trifluoromethyl)pyrimidin-4-ol]	> 3330 nM	–	> 20000 nM	–	–	–
CC(C)[C@@H]1CN(c2cccc(S(C)(=O)=O)c2)CCN1c1ccc(C(F)(F)F)nn1 [7-48, (R)-3-(2-isopropyl-4-(3-(methylsulfonyl)phenyl)piperazin-1-yl)-6-(trifluoromethyl)pyridazine]	877 nM	2110 (98) %	2110 nM	–	–	–
CCOC(=O)c1csc(-c2ccc(N3CCN(C(=O)OC(C)(C)C)[C@H](C(C)C)C3)cc2S(C)(=O)=O)n1 [2-4, ethyl (R)-2-(4-(4-(tert-butoxycarbonyl)-3-isopropylpiperazin-1-yl)-2-(methylsulfonyl)phenyl)thiazole-4-carboxylate]	1080 nM	4227 (62) %	–	4230 nM	–	–
CC(F)(F)[C@@H]1CN(c2cccc(S(C)(=O)=O)c2)CCN1c1nccc(C(F)(F)F)n1 [7-26, (S)-2-(2-(1,1-difluoroethyl)-4-(3-(methylsulfonyl)phenyl)piperazin-1-yl)-4-(trifluoromethyl)pyrimidine]	193 nM	1211 (37) %	–	1210 nM	–	–
CC1(C)CCC(CN2CCN(c3ccc(CO)c(S(C)(=O)=O)c3)C[C@@H]2c2ccccc2)CC1 (single isomer, unassigned) [48-26]	39 nM	364 (73) %	–	364 nM	–	–
CC(C)[C@@H]1CN(c2ccc(CN)c(S(C)(=O)=O)c2)CCN1c1nccc(C(F)(F)F)n1 [15-11, (R)-(4-(3-isopropyl-4-(4-(trifluoromethyl)pyrimidin-2-yl)piperazin-1-yl)-2-(methylsulfonyl)phenyl)methanamine]	2180 nM	4307 (42) %	–	4310 nM	–	–
CS(=O)(=O)c1cccc(N2CCN(c3nccc(C(F)(F)F)n3)[C@H](C(F)(F)F)C2)c1 [7-28, (S)-2-(4-(3-(methylsulfonyl)phenyl)-2-(trifluoromethyl)piperazin-1-yl)-4-(trifluoromethyl)pyrimidine]	422 nM	2235 (40) %	2240 nM	–	–	–
CCOC(=O)c1cnc(N2CCN(c3ccc(-c4nc(C(N)=O)cs4)c(S(C)(=O)=O)c3)C[C@H]2C(C)C)nc1C(F)(F)F [9-14, ethyl (R)-2-(4-(4-(4-carbamoylthiazol-2-yl)-3-(methylsulfonyl)phenyl)-2-isopropylpiperazin-1-yl)-4-(trifluoromethyl)pyrimidine-5-carboxylate]	407 nM	3003 (28) %	3000 nM	–	–	–
CC(O)c1cnc(N2CCN(c3ccc(F)c(S(C)(=O)=O)c3)C[C@H]2c2ccc(F)cc2)nc1C(F)(F)F (stereo partly drawn) [12-9, 1-(2-((R)-4-(4-fluoro-3-(methylsulfonyl)phenyl)-2-(4-fluorophenyl)piperazin-1-yl)-4-(trifluoromethyl)pyrimidin-5-yl)ethan-1-ol]	896 nM	4884 (19) %	–	4880 nM	–	–
CCOC(=O)c1cnc(N2CCN(c3ccc(F)c(S(C)(=O)=O)c3)C[C@H]2CC(C)C)nc1C(F)(F)F [9-7, ethyl (R)-2-(4-(4-fluoro-3-(methylsulfonyl)phenyl)-2-isobutylpiperazin-1-yl)-4-(trifluoromethyl)pyrimidine-5-carboxylate]	33 nM	960 (34) %	–	960 nM	–	–
CS(=O)(=O)c1cccc(N2CCN(c3nccc(C(F)(F)F)n3)[C@@H](C(F)(F)F)C2)c1 [7-27, (R)-2-(4-(3-(methylsulfonyl)phenyl)-2-(trifluoromethyl)piperazin-1-yl)-4-(trifluoromethyl)pyrimidine]	7190 nM	–	> 20000 nM	–	–	–
CC(C)[C@H]1CN(c2ccc(CO)c(S(C)(=O)=O)c2)CCN1C[C@H]1CCN(CC(F)(F)F)C1 (single isomer, unassigned) [48-58]	–	3252 (56) %	–	–	3250 nM	> 3330 nM
CC(C)[C@@H]1CN(c2ccc(F)c(S(C)(=O)=O)c2)CCN1c1ncc(C(F)(F)F)cc1[N+](=O)[O-] [7-42, (R)-4-(4-fluoro-3-(methylsulfonyl)phenyl)-2-isopropyl-1-(3-nitro-5-(trifluoromethyl)pyridin-2-yl)piperazine]	623 nM	3110 (46) %	–	3110 nM	–	–
CC1(C)CCC(CN2CCN(c3ccc(CO)c(S(C)(=O)=O)c3)C[C@H]2c2ccccc2)CC1 (single isomer, unassigned) [48-27]	2860 nM	18123 (60) %	–	18100 nM	–	–
CC(C)[C@@H]1CN(c2ccc(F)c(S(C)(=O)=O)c2)CCN1c1ncc(C(F)(F)F)cc1Cl [7-41, (R)-1-(3-chloro-5-(trifluoromethyl)pyridin-2-yl)-4-(4-fluoro-3-(methylsulfonyl)phenyl)-2-isopropylpiperazine]	72 nM	949 (84) %	–	949 nM	–	–
CC(C)[C@@H]1CN(c2ccc(F)c(S(C)(=O)=O)c2)CCN1c1ccc(C(F)(F)F)nn1 [7-49, (R)-3-(4-(4-fluoro-3-(methylsulfonyl)phenyl)-2-isopropylpiperazin-1-yl)-6-(trifluoromethyl)pyridazine]	508 nM	1335 (112) %	–	1340 nM	–	–
CC(C)[C@@H]1CN(c2ccc(CO)c(S(C)(=O)=O)c2)CCN1c1ncc(C(C)(C)C#N)c(C(F)(F)F)n1 [Cpd No 25-1, (R)-2-(2-(4-(4-(hydroxymethyl)-3-(methylsulfonyl)phenyl)-2-isopropylpiperazin-1-yl)-4-(trifluoromethyl)pyrimidin-5-yl)-2-methylpropanenitrile]	32 nM	174 (44) %	–	174 nM	–	–
CC(C)[C@@H]1CN(c2ccc(-c3nc(C(N)=O)cs3)c(S(C)(=O)=O)c2)CCN1c1ncc(CO)c(C(F)(F)F)n1 [11-13, (R)-2-(4-(4-(5-(hydroxymethyl)-4-(trifluoromethyl)pyrimidin-2-yl)-3-isopropylpiperazin-1-yl)-2-(methylsulfonyl)phenyl)thiazole-4-carboxamide]	706 nM	2145 (52) %	–	2150 nM	–	–
CC(C)[C@@H]1CN(c2cccc(S(C)(=O)=O)c2)CCN1c1ccc(C2CC2)nn1 [7-47, (R)-3-cyclopropyl-6-(2-isopropyl-4-(3-(methylsulfonyl)phenyl)piperazin-1-yl)pyridazine]	3100 nM	4921 (84) %	4920 nM	–	–	–
CC(C)[C@@H]1CN(c2cccc(S(C)(=O)=O)c2)CCN1C[C@H]1CC[C@H](C(F)(F)F)CC1 (single isomer, unassigned) [48-10]	1680 nM	9657 (80) %	9660 nM	–	–	–
